Results on five compounds are retold here after patent publication US7521454B2 (Dainippon Sumitomo Pharma Co., Ltd., priority 2001, dated 2009).

Series [1] deals with human peripheral blood mononuclear cells (PBMC). Description: Interferon-inducing activity in human peripheral blood mononuclear cells (PBMC), IFN-α ELISA.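 Also: IFN-α in pg/ml with a 1.25 pg/ml detection limit.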 It is filed as cell-based. As to conditions: 24 h. The method, then:
Peripheral bloods were sampled from 5 healthy volunteers using a syringe containing heparin, and peripheral blood mononuclear cells (PBMC) were prepared by density gradient centrifugation utilizing the Lymphoprep™ (NYCOMED PHARMA AS). PBMCs were washed twice in serum-free RPMI 1640 medium and adjusted at 1×10^6 cells/ml in RPMI 1640 medium comprising 10% fetal bovine serum. The product was cultured in the presence of a test compound dissolved in dimethyl sulfoxide (final concentration: 0.1%) in an incubator in the presence of 5% CO^2 at 37° C. for 24 hours. As a control, 0.1% dimethyl sulfoxide containing no test compound was used. The culture supernatant was aseptically collected by filtration. Thereafter, the supernatant was cryopreserved at −20° C. or lower until it was subjected to the assay for IFN-inducing activity. Human IFN-α in the culture supernatant was quantified using a highly sensitive ELISA system (Amersham).
A general note: ELISA stands for enzyme-linked immunosorbent assay.

The subject of series [2] is IL-4 production. Description: Inhibitory activity against Th2 cytokine produced from sensitized spleen cells: IL-4. It is filed as cell-based, mouse. Particulars: OVA-sensitized BALB/c spleen cells, 3 days; for activity at 0.001 µM / activity at 0.01 µM / activity at 0.1 µM: Mus musculus, 72 h, read-out: Inhibitory activity against IL-4 production. The method, then: (§1) A 7-week-old BALB/c mouse was immunized intraperitoneally with aluminum hydroxide gel (4 mg, 100 μl) having 10 μg of ovalbumin adsorbed thereon, and it was subjected to additional immunization with the same agent 14 days later. Seven days thereafter, spleen was taken out, and suspended in RPMI-1640 comprising inactivated fetal bovine serum (10%), 2-mercaptoethanol ([…]), penicillin G (100 U/ml), and streptomycin (100 μg/ml). Thus, a splenic cell suspension was prepared. Ovalbumin (0.5 mg/ml) and a test compound were added to a splenic cell suspension (5×10^6 cell/200 μl/well), and the resultant was cultured at 37° C. in the presence of 5% CO2 for 3 days. The cytokine level in the culture supernatant was quantified by ELISA. IFN-γ and IL-4 were assayed using a kit available from Amersham, and IL-5 was assayed using a kit available from Endogen.

Series [3] has as its system mouse spleen cell. Description: cells. As to conditions: for minimal effective concentration: Mus musculus, 24 h, read-out: Interferon-inducing activity: Minimum effective concentration. In kind it is cell-based.
Series [4] concerns IL-5 production. Put plainly: Inhibitory activity against Th2 cytokine produced from sensitized spleen cells: IL-5. Particulars: OVA-sensitized BALB/c spleen cells, 3 days; for activity at 0.001 µM / activity at 0.01 µM / activity at 0.1 µM: Mus musculus, 72 h, read-out: Inhibitory activity against IL-5 production. In kind it is cell-based, mouse. The method, then: as §1
Series [5] in a line: Gastrointestinal absorption in rat (drug level in blood by HPLC). In kind it is in vivo. As to conditions: SD male rat. The method, then:
A test compound was suspended in an aqueous solution of 0.5% carboxymethylcellulose, and the resulting suspension was orally administered to an SD male rat. Blood was sampled with the elapse of time, and the level of the drug in blood was assayed by HPLC.

Series [6] concerns Balb/c male mouse. Description: Interferon-inducing activity in mouse (in vivo), serum interferon titer after oral dosing.
The nature of series [7]: Solubility in citric acid/disodium phosphate buffers. Particulars: citric acid/disodium phosphate buffer, thermodynamic from solid.
Description: 5.53% citric acid (monohydrate) and 1.75% disodium phosphate (anhydrous) were mixed together to prepare buffers (pH 2.5, 5.5, 7.4). A compound was added thereto, the mixture was stirred in a vortex mixer and subjected to ultrasonication for 30 minutes. Thereafter, the resultant was stirred in a vortex mixer again and then centrifuged at 15,000 rpm for 20 minutes. The levels of the compounds in the supernatants were then quantified by HPLC.
For series [8], the system named is male cynomolgus monkeys. As to conditions: po, 10 mg/kg, 4 h.
Series [9] has as its system rat model of eosinophil leukocytic infiltration. Put plainly: Rat model of eosinophil leukocytic infiltration (OVA, bronchoalveolar lavage). In kind it is in vivo. Particulars: 0.01 mg/kg intratracheal, 2.5 hours before induction, lavage 24 hours after. The method, then:
A rat was immunized intraperitoneally with 1 ml of a solution containing 1 mg of ovalbumin (OVA) and 100 mg of Al(OH)3 on day 0 and day 7. On day 14, a 1% OVA solution was sprayed for 15 minutes using a ultrasonic nebulizer to induce reactions. A test compound was administered intratracheally 2.5 hours before the induction. Bronchoalveolar lavage was performed 24 hours after the induction, and eosinocytes in the wash was stained with Hinkelman to count the number of stained cells. Sensi.−/Challe.+, CMC-Na, and Fluticasone were used as controls. FIG. 1 and the following table show the results.

In series [10] the test system is male cynomolgus monkeys. Put plainly: Interferon-inducing activity in cynomolgus monkey (in vivo), serum interferon titer and vomition. As to conditions: 10 mg/kg oral.
[11] abbreviates: blood, dose 3 mg/kg oral, read-out: Cmax.
Where [12] appears, read: blood, dose 3 mg/kg oral, read-out: Tmax.

Values after ≈ are worked out from the molar mass of the structure shown. Where two headings read alike, the source gives them in different places.

For orientation: Cmax means the maximum level reached in the sampled fluid or tissue. In general, Tmax refers to the time at which the peak concentration occurs. As for “1-(2-hydroxy-2-methylpropyl)-2-methoxyethyl-1H-imidazo[4,5-c]quinoline-4-amine [Comparative Example 2, reference compound]”, the figures for the “Interferon-inducing activity (human IFN-α in culture supernatant)” value in series [1] (concentration 0.3 nM), in [1] (concentration 1 nM) and in [1] (concentration 3 nM) were “— ((−) indicates a detection limit (1.25 pg/ml) or lower)”, “— ((−) indicates a detection limit (1.25 pg/ml) or lower)” and 6 ± 5 pg/mL, respectively. Besides, the “Inhibitory activity against IL-4 production” value in series [2] (concentration 0.1 nM) was 90 % of control; in series [2] (concentration 1 nM), 24 % of control; in [2] (concentration 10 nM), 1 % of control; in series [2] (concentration 100 nM), <1 % of control. Moreover, the “Interferon-inducing activity: Minimum effective concentration” value in [3] is reported as 3 nM. The “Inhibitory activity against IL-5 production” value in [4] (concentration 0.1 nM) was 106 % of control; in series [4] (concentration 1 nM) it was 73 % of control; in series [4] (concentration 10 nM) it was 18 % of control; in series [4] (concentration 100 nM), 10 % of control. In addition, the Cmax was found to be 19 ng/mL in [5] (dose 3 mg/kg oral) and 15 ng/mL in series [5] (dose 10 mg/kg oral). Further, the Tmax is 60 min in series [5] (dose 3 mg/kg oral) and 30 min in series [5] (dose 10 mg/kg oral). The Interferon-inducing activity in series [6] (dosage 0.1 mg/kg oral, serum 2 h after dosing, Balb/c mouse) is given as 1638 ± 246 U/ml; in series [6] (dosage 0.3 mg/kg oral, serum 2 h after dosing, Balb/c mouse), 1961 ± 950 U/ml.
In the case of `CC(C)Cn1cnc2c(N)nc3ccccc3c21` [Comparative Example 1, Imiquimod, reference compound], the activity at 0.001 µM came out at 18% in [2] (concentration 1 nM) and 54% in [4] (concentration 1 nM). Moreover, the values for the activity at 0.01 µM in series [2] (concentration 10 nM) and in [4] (concentration 10 nM) were 1% and 15%, respectively. The activity at 0.1 µM in series [2] (concentration 100 nM) is less than 1%; in [4] (concentration 100 nM) it was 10%. Moreover, in [3], the minimal effective concentration was determined as 0.3 µM. For the same compound, the highest concentration (Cmax) in [5] (setting [11]) is 90 ng/mL. Moreover, the time to peak (Tmax) in [5] (setting [12]) came to 30 min.
Broadly, the solubility is the concentration that dissolves in the medium under given conditions. In the case of `CCCCNc1nc(N)c2nc(O)n(Cc3ccc(OC)nc3)c2n1` [Example 19, 2-Butylamino-8-hydroxy-9-(6-methoxy-3-pyridylmethyl)adenine], the “Interferon-inducing activity (human IFN-α in culture supernatant)” value amounted to 5 ± 1 pg/mL in [1] (concentration 1 nM), 12 ± 11 pg/mL in series [1] (concentration 3 nM), 48 ± 34 pg/mL in series [1] (concentration 10 nM) and 60 ± 33 pg/mL in series [1] (concentration 30 nM). In addition, the solubility at 30 min in [7] (pH 2.5, aqueous buffer) came to 130 µg/mL (≈ 379 µM); in series [7] (pH 5.5, aqueous buffer), 2 µg/mL (≈ 5.82 µM); in series [7] (pH 7.4, aqueous buffer) it was 2 µg/mL (≈ 5.82 µM). In addition, the activity at 0.001 µM in series [2] (concentration 1 nM) stood at 32%; in [4] (concentration 1 nM) it was 83%. Moreover, the activity at 0.01 µM in series [2] (concentration 10 nM) was less than 1%; in [4] (concentration 10 nM) it was 16%. The activity at 0.1 µM was less than 1% in series [2] (concentration 100 nM) and 13% in [4] (concentration 100 nM). Moreover, the minimal effective concentration in series [3] is 0.003 µM. The “interferon titer in blood serum (average±SE)” value in series [8] was 12,173±6619 U/ml. Besides, the highest concentration (Cmax) in [5] (setting [11]) came out at 188 ng/mL. For the same compound, the Tmax in series [5] (setting [12]) was determined as 240 min. Besides, the Interferon-inducing activity in series [6] (po, 0.01 mg/kg, 2 h) came to 14 ± 5 U/ml; in series [6] (po, 0.03 mg/kg, 2 h), 199 ± 84 U/ml; in series [6] (po, 0.1 mg/kg, 2 h), 383 ± 122 U/ml; in [6] (po, 0.3 mg/kg, 2 h) it was 601 ± 187 U/ml.
Take `C[C@@H]1C[C@H]2[C@@H]3C[C@H](F)C4=CC(=O)C=C[C@]4(C)[C@@]3(F)[C@@H](O)C[C@]2(C)[C@@]1(O)C(=O)SCF` [Fluticasone, reference compound]: the “eosinocytes in bronchoalveolar lavage, Average” value in series [9] is given as 300.07 ×10^4 cells.
Take `CCCCOc1nc(N)c2nc(Br)n(Cc3ccc(Cl)nc3)c2n1` [Reference Example 2, 8-Bromo-2-butoxy-9-(6-chloro-3-pyridylmethyl)adenine]: the vomition observed in series [10] (cynomolgus monkeys) is 4 out of 5 samples. For the same compound, the “interferon titer in blood serum (average±SE)” value in series [10] (four hours after the administration, five male cynomolgus monkeys) is 18,305±5578 U/ml.
